Reference: publication PMC12604490, “Dual immunomodulatory and antileishmanial potential of TLR7/8 agonists against Leishmania donovani” (Infection and Immunity, 2025)
Converted amounts (≈) assume the structure as drawn.

Columns and labels:
[1] = Cytotoxicity on HeLa cells (MTT, 48 h); format: cell-based, human; conditions: human, HeLa cells
Protocol: HeLa cells (human cervical epithelial cell line) were grown in RPMI-1640 (HiMedia) with 10% FBS and cultured at 37°C (5% CO2). The cells were evaluated daily using an inverted microscope for any contamination and subcultured after reaching confluency ([21]).
(§1) The cytotoxicity studies were performed using an immune cell line (RAW 264.7 macrophage) and non-immune epithelial cell line (HeLa) by 3-(4,5-dimethylthiazol-2-yl)-2,5-diphenyltetrazolium bromide (MTT) assay. A total of 7,000–10,000 cells/well were supplemented with different concentrations (2–64 μg/mL) of TLR7/8 agonists and incubated for 48 hours. MTT (1 mg/mL) (Hi-Media) was added to each well and kept for 4 hours. The formazan crystals formed were dissolved in 100 µL of dimethyl ulfoxide (DMSO), and absorbance at 550 nm was recorded using a microreader. AmB, MF, and Resiquimod were used as reference drugs. The percentage of cytotoxicity was calculated as [(absorbance of treated well − absorbance of blank) / (absorbance of untreated well − absorbance of blank)] × 100. The CC50 value was calculated with SPSS software. The SI of TLR7/8 agonists was obtained by calculating the ratio of CC50 (RAW 264.7 macrophage and HeLa cells) and IC50 (antipromastigote and antiamastigotes) ([21], [23]).

[2] = system: intracellular L. donovani amastigotes; assay: Antiamastigote activity in infected RAW 264.7 macrophages (Giemsa count, 48 h); format: cell-based; conditions: Leishmania donovani, RAW264.7, intracellular amastigotes in RAW 264.7 macrophages, mean ± SD
Protocol: The macrophage cell growth was evaluated daily, and the cells were subcultured into a new flask containing fresh cell culture medium once they reached about 80%–90% confluency. […] Macrophages (2 × 10^4/mL) were plated on round coverslips placed in 24-well plates for 24 hours in a CO2 incubator (5% CO2) at 37°C. The coverslips were washed thrice with serum-free medium to remove the non-adherent cells. […] Infected macrophages were incubated with different concentrations of TLR7/8 agonists for 48 hours. After 48 hours, the coverslips were washed with phosphate-buffered saline (PBS), dried, fixed with chilled methanol, Giemsa-stained, and examined under a light microscope. A minimum of 200 macrophages were counted per coverslip to determine the number of amastigotes.

TLR7 = system: TLR7; parameters: method as in PMID 38741265, PMID 39411538; conditions: Table 1, previously reported, cited from earlier work; for EC50: read-out: TLL7 EC50
[3] = Cytotoxicity on RAW 264.7 macrophages (MTT, 48 h); format: cell-based; conditions: mouse, RAW 264.7 macrophages
Protocol: (§2) To evaluate the cytotoxicity and antiamastigote assay, RAW 264.7 macrophages were cultured in Dulbecco’s modified Eagle medium (HiMedia, India), 10% heat-inactivated fetal bovine serum (FBS, Biowest) and cultured at 37°C (5% CO2). The macrophage cell growth was evaluated daily, and the cells were subcultured into a new flask containing fresh cell culture medium once they reached about 80%–90% confluency.
as §1

TLR8 = system: TLR8; parameters: method as in PMID 38741265, PMID 39411538; conditions: Table 1; previously reported; cited from earlier work
[4] = system: L. donovani promastigotes; assay: In vitro antipromastigote activity (trypan blue count, 48 h); format: cell-based, Leishmania donovani MHOM/IN/80/DD8; conditions: Leishmania donovani, mean ± SD
Protocol: M199 was added with 0.2% sodium bicarbonate and 10% heat-inactivated fetal bovine serum (FBS; Biowest, France) + antibiotics (gentamycin and streptomycin) by serial subcultures after every 48-72 hours by transferring 0.5-1.0 mL of culture supernatant in fresh medium and kept in a biological oxygen demand (BOD) incubator ([20]). […] The percentage growth inhibition was calculated using the following formulas: Percentage viability=No. of live cells in treated well/No. of live cells in blank well×100 Percentage growth inhibition=100 - percentage viability. The IC50 values were calculated using SPSS software, version 25 ([22]).

RAW 264.7 macrophages [5] = assay: NO production in RAW 264.7 macrophages (Griess reagent); format: cell-based
Protocol: After 24 hours, non-adherent cells were removed, and adherent cells were incubated with TLR7/8 agonist for 48 hours in the presence or absence of LPS (1 µg/mL) (Biosciences) to evaluate both unstimulated and LPS-stimulated macrophage responses. After 48 hours, the culture supernatant (100 µL) was collected and mixed with an equal volume of Griess reagent (1% sulfanilamide and 0.1% naphthlethylenediamine dihydrochloride in 2.5% phosphoric acid) (Sigma), and absorbance was measured in a microreader at 540 nm. Nitrite concentration was evaluated from a standard curve generated with sodium nitrite ([25]).

[6] = system: L. donovani promastigotes; assay: ROS in Leishmania promastigotes (H2DCFDA, flow cytometry); format: cell-based, Leishmania donovani; conditions: promastigotes incubated with the IC50 value for 48 hours; untreated 295 ± 1.52
Protocol: Induction of ROS by promastigotes after exposure to TLR7/8 agonists was done using a cell-permeable fluorescent dye H2DCFDA (Thermo Fisher). […] After this given time period, parasites were harvested and washed thrice with PBS and resuspended in 10 µM H2DCFDA for 20 minutes in the dark at 37°C. The fluorescence was measured by using FACS Calibur flow cytometry ([24]).

[7] = system: L. donovani promastigotes; assay: Cell cycle progression in promastigotes (propidium iodide, flow cytometry); format: cell-based, Leishmania donovani; conditions: promastigotes incubated with the IC50 for 48 hours; untreated 12.0% ± 1.05%
Protocol: For analysis of the promastigote cell cycle, 2 × 10^6 promastigotes/mL were briefly incubated with the IC50 of TLR7/8 agonists in a 24-well culture plate. After 48 hours, promastigotes were washed with PBS and fixed with 70% (vol/vol) chilled ethanol. After 1 hour of incubation, parasites were washed with PBS, and the pellet was incubated with 500 µL of DNase-free RNase (200 µg/mL) (Thermo Fisher) for 1 hour. Afterward, parasites were stained with PI dye (50 µg/mL), and the percentage of parasites in the sub-G0/G1 phase was analyzed using FACS Calibur flow cytometry ([20]).

RAW 264.7 macrophages [8] = assay: Cytotoxicity on RAW 264.7 macrophages (MTT, 48 h); format: cell-based; conditions: MTT, 48 hours, mean ± SD
Protocol: as §2, §1

Leishmania major = system: Leishmania major; parameters: method as in PMID 33531168; conditions: 80 µM concentration; cited from earlier work
Leishmania infantum = conditions: read-out: IC50 against Leishmania infantum; cited from earlier work
[9] = system: Leishmania in peritoneal macrophages; parameters: method as in PMID 30991111; conditions: cited from earlier work
L. infantum = system: L. infantum; parameters: method as in PMID 33851916; conditions: read-out: IC50 (antiamastigote) against L. infantum; cited from earlier work
[10] = MTT, 48 hours, mean ± SD, read-out: HeLa cell CC50
[11] = MTT, 48 hours, mean ± SD, read-out: RAW macrophage CC50
[12] = Fig 4 heat map, mean CC50, unit inferred, read-out: CC50, heat map, Hela Cells

IC50 [2] | IC50 [4] | Structure (SMILES) | CC50 at 48 h [1, 10] | CC50 at 48 h [3, 11] | CC50 at 48 h [1, 12] | EC50 (TLR7) | EC50 (TLR8) | also measured
5.16 ± 0.79 µg/mL (≈ 11.2 µM) | 3.82 ± 0.39 µg/mL (≈ 8.31 µM) | CCCCc1nc2c(N)nc3ccccc3c2n1Cc1ccc(CNC(=O)OC(C)(C)C)cc1 [compound 7] | 4.28 ± 0.2 µg/mL (≈ 9.31 µM) | 6.28 ± 0.2 µg/mL (≈ 13.7 µM) |  |  |  | TLL7 EC50 (TLR7): Active; TLR8 EC50 (TLR8): Active
3.1 ± 0.9 µg/mL (≈ 6.75 µM) | 2.21 ± 0.6 µg/mL (≈ 4.81 µM) | CCCCc1nc2c(N)nc3ccccc3c2n1Cc1cccc(CNC(=O)OC(C)(C)C)c1 [compound 8] | 8.86 ± 0.5 µg/mL (≈ 19.3 µM) | 9.5 ± 1 µg/mL (≈ 20.7 µM) | 8.8 µg/mL (≈ 19.1 µM) |  |  | TLL7 EC50 (TLR7): Active; TLR8 EC50 (TLR8): Active
6.46 ± 0.47 µg/mL (≈ 18 µM) | 4.53 ± 0.58 µg/mL (≈ 12.6 µM) | CCCCc1nc2c(N)nc3ccccc3c2n1Cc1cccc(CN)c1 [compound 9] | 4.67 ± 0.3 µg/mL (≈ 13 µM) | 6.67 ± 0.3 µg/mL (≈ 18.6 µM) |  | […] | […] | 
3 ± 0.36 µg/mL (≈ 8.35 µM) | 2.33 ± 0.4 µg/mL (≈ 6.48 µM) | CCCCc1nc2c(N)nc3ccccc3c2n1Cc1ccc(CN)cc1 [compound 10] | 29.4 ± 1.6 µg/mL (≈ 81.7 µM) | 30.4 ± 1.6 µg/mL (≈ 84.5 µM) | 21.4 µg/mL (≈ 59.4 µM) | […] | […] | NO production (RAW 264.7 macrophages [5]; RAW 264.7 macrophages, 48 hour treatment at the IC50 value, nitrite by Griess): 42 ± 1 µM; NO production in unstimulated macrophages (RAW 264.7 macrophages [5]; RAW macrophages without LPS stimulation, in words): moderate NO production; ROS, mean fluorescence intensity (MFI) [6]: 935 ± 1; CC50 at 48 h ([3]; Fig 4 heat map, mean CC50, unit inferred, read-out: CC50, heat map, Raw Macrophages): 25.4 µg/mL (≈ 70.6 µM); percentage of parasites in sub-G0/G1 phase [7]: 75.7% ± 1.25%
6.6 ± 0.4 µg/mL (≈ 27.5 µM) | 4.63 ± 0.45 µg/mL (≈ 19.3 µM) | CCCCn1cc2c(n1)c(N)nc1ccccc12 [compound 11] | 4.67 ± 0.2 µg/mL (≈ 19.4 µM) | 6.69 ± 0.22 µg/mL (≈ 27.8 µM) | 4.88 µg/mL (≈ 20.3 µM) | 190 nM | 56 nM | RAW macrophage CC50 (RAW 264.7 macrophages [8]): 6.67 ± 0.2 µg/mL
 |  | COc1cc(/C=C/C(=O)CC(=O)/C=C/c2ccc(O)c(OC)c2)ccc1O [curcumin] |  |  |  |  |  | cell death (Leishmania major): 82.5%
 |  | CC(C)Cn1cnc2c(N)nc3ccccc3c21 [imiquimod] |  |  |  |  |  | IC50 (Leishmania infantum): 235 ± 10 nM
 |  | Oc1ccc(/C=C/c2cc(O)cc(O)c2)cc1 [resveratrol] |  |  |  |  |  | IC50 against Leishmania in peritoneal macrophages [9]: 0.09 µg/mL (≈ 0.394 µM)
 |  | CC(=O)OC1C(O)CC(OC2C(O)CC(OC3C(O)CC(OC4CCC5(C)C(CCC6C5CCC5(C)C(C7=CC(=O)OC7)CCC65O)C4)OC3C)OC2C)OC1C (stereo not drawn) [β-acetyl-digitoxin] |  |  |  |  |  | IC50 (L. infantum): 20900 ± 2600 nM
